Values joined by “and” are separate entries in the source; they are usually repeats but may differ in a detail not shown here. Equal values may be shown once.
Key:
[1] = tested on: CCL-119 cells; experiment: MTT cytotoxicity assay; conditions: for cell viability at 0.31 µM / cell viability at 0.63 µM / cell viability at 1.25 µM / cell viability at 2.50 µM / cell viability at 5.00 µM / Selectivity Index (SI): 24 hours; for cell viability at 0.31 µM / cell viability at 0.63 µM / cell viability at 1.25 µM / cell viability at 2.50 µM / cell viability at 5.00 µM: single replicates n1-n3, untreated = 100.00; for cell viability at 2.50 µM: 2.5 µM; for Selectivity Index (SI): IC50 WIL2-NS / IC50 CCL-119
Method: The T-acute lymphoblastic leukemia cell line, CCRF-CEM (CCL-119™), and a non-cancerous cell, WIL2-NS (CRL-8155™), were purchased from the American Type Culture Collection (ATCC). Both are suspension types of cells and were cultured in Roswell Park Memorial Institute Medium 1640 (RPMI-1640) (Sigma-Aldrich), supplemented with 10% Fetal Bovine Serum (FBS) (Capricorn Scientific) and 1% penicillin-streptomycin (Nacalai Tesque) to obtain the complete growth medium and were incubated at 37 °C with a 5% CO2 incubator. Both suspension cells are used for tests when the cells’ passage becomes passage 3–10 (maximum).
All stock solutions of the organotin (IV) dithiocarbamate compounds were prepared at 10 mM and dissolved in dimethyl sulphoxide (DMSO) (ChemAR®). The stock solutions were stored at 4°C; fresh dilutions were made by adding the RPMI-1640 medium before the experiment. The dilution is carried out using the serial dilution method to obtain the desired concentrations, which are 5 µM, 2.5 µM, 1.25 µM, 0.63 µM, 0.32 µM, and 0.16 µM in this study. Vincristine (VCR) is used as a positive control in this study.
Both CCL-119 and WIL2-NS cells were seeded in a 96-well plate at a final concentration of 5 x 10^5 cells/well and treated with 5 µM, 2.5 µM, 1.25 µM, 0.63 µM, 0.32 µM, and 0.16 µM of organotin (IV) dithiocarbamate compound for 24 hours at 37°C with 5% CO2. VCR was used as a positive control in this study, while cells without treatment were used as a negative control. After 24 hours of exposure, 20 µL of MTT (Merck) salt solution was added into each well and incubated for another 4 hours. The plate was wrapped with aluminium foil as MTT salt is light sensitive. After 4 hours, the purple crystal formazan was formed. All the medium was removed carefully from each well, and 200 µL DMSO was added to each well to dissolve the purple formazan crystal. Then, the plates were incubated for an additional 15 minutes. The results were analyzed and recorded using an ELISA microplate reader at 570 nm. The data was then plotted into a graph, and IC50 values were determined.
The selectivity index (SI) is determined by dividing the cytotoxic activity (IC50 value) of each compound on a non-cancerous cell line (WIL2-NS) by the leukemia cell line (CCL-119). […] WIL2- NS cell lines were selected as the comparator because it is a non-cancerous human B lymphoblast cell line, which is like CCL-119 (T-lymphoblastic leukemia), derived from lymphocytes. This choice ensures that comparisons are made between biologically similar cell types, minimizing variability that could arise from differences in tissue origin or lineage.

[2] = tested on: CCL-119 cells; experiment: Mode of cell death, Annexin V-FITC/PI staining (flow cytometry); type: cell-based; conditions: for Early Apoptosis (Q4) / Late Apoptosis (Q2) / Necrosis (Q1) / Viable (Q3): 24 hours at IC50, single replicates n1-n3
Method: The mode of cell death can be observed through the Annexin V-FITC/PI staining (BD, USA). The result of this test is either apoptosis or necrosis. […] VCR was used as a positive control, while cells without any treatment were used as a negative control. Then, the plate was incubated for 24 hours. After the incubation, the cell suspension in each well was collected into different Eppendorf tubes. The tubes were then centrifuged for 5 minutes at 1500 rpm at 4°C. After the centrifuge, the supernatant in the tubes was removed, and the cell pellets were washed twice with cold PBS. Then, centrifuge the tubes again and remove the supernatant. Next, 100 µL of Annexin V binding buffer was resuspended in each tube, and 5 µL Annexin V-FITC was pipetted into the tube to stain the cells for 15 minutes at room temperature, dark. After that, 5 µL of propidium iodide was piped into the tube for 5 minutes. The staining process is done in dark conditions. Lastly, the sample was transferred into the Falcon tube, and each tube was resuspended in 400 µL of Annexin V binding buffer. The sample was analyzed using a flow cytometer (BD FACS Canto II) within one hour.

[3] = tested on: CCL-119 cells; experiment: Cell cycle analysis (PI/RNase staining); type: cell-based; conditions: for cells in G0/G1 phase / cells in G2/M phase / cells in S phase: 24 hours at IC50, single replicates n1-n3
Method: The cells were cultured and seeded in a 6-well plate at 1 x 10^6 cells/mL. VCR was used as a positive control, and untreated cells were used as a negative control in this assay. The concentration of the compounds and VCR was followed by IC50 values that were taken from the MTT assay.
After 24 hours of incubation, all cells in the plate were transferred to the Eppendorf tube and centrifuged for 5 minutes at 4°C at 1500 rpm. After centrifuging, the supernatant was removed, and cells were washed with 500 µL cold PBS three times. The pellet was fixed by using 70% ethanol overnight at −20°C. Next, the samples were stained with 500 µL of PI/RNase staining buffer and incubated for 15 minutes. The samples were then transferred into Falcon tubes. The data was recorded using a flow cytometer and analyzed using ModFit LT software.

[4] = tested on: CCL-119 cells; experiment: Alkaline comet assay; type: cell-based; conditions: for % DNA intensity / Tail moment / percentage of DNA intensity in the tail: 1 hour of exposure
Method: VCR was used as a positive control, and untreated cells were used as a negative control in this assay. The cells were incubated for 1 hour. After incubation, cells in each well were transferred to the Eppendorf tube to centrifuge for 5 minutes at 4°C by using a refrigerated microcentrifuge. The supernatant was removed, and the samples were washed with 1 mL of cold PBS. This process was repeated 3 times. After completion of the process, the supernatant was removed, and the pellet was left for a while on top of the ice while preparing the slide.
About 140 µL of normal melting agar (NMA) is pipetted on top of the fully frosted slide, and a cover slip is put on the agar for 5 minutes or until the agar fully solidifies. After that, the cover slip was removed, and 80 µL of low melting agar (LMA) was added to an Eppendorf tube containing the pellet of cells. The suspension was then transferred into a frosted slide with NMA agar. The cover slip was then put back on top of the frosted slide for 10 minutes or until dry. Next, the slide was transferred into a Coplin jar that contained lysis buffer solution and Triton X-100. The slides were then incubated at 4°C overnight. The slides were arranged on an electrophoresis tank filled with electrophoresis buffer for 20 minutes. Electrophoresis is done for another 20 minutes at 25 V with 300 mA. The slides were washed with a neutralization buffer solution 3 times at a 5-minute time interval. Finally, 30 µL of ethidium bromide (50 µg/mL) was added, and the slide was observed by using fluorescence microscopy (OLYMPUS BX51TR). CometScore software is used to analyze the DNA damage of the cells. The comet assay was performed under alkaline conditions (pH > 13) to detect both single- and double-strand DNA breaks.

[5] = tested on: WIL2-NS cells; parameters: method as in Rasli et al. (2023); conditions: non-cancerous cells; 24 hours of exposure; graph referred to earlier paper; ref Rasli et al. (2023); cited from earlier work

SMILES	cell viability at 0.31 µM [1]	cell viability at 0.63 µM [1]	cell viability at 1.25 µM [1]	cell viability at 2.50 µM [1]	cell viability at 5.00 µM [1]	Early Apoptosis (Q4) [2]	Late Apoptosis (Q2) [2]	Necrosis (Q1) [2]	Viable (Q3) [2]	cells in G0/G1 phase [3]	cells in G2/M phase [3]	cells in S phase [3]	% DNA intensity ([4]; single replicates n1-n3)	Tail moment ([4]; single replicates n1-n3)	IC50 [5]	Selectivity Index (SI) [1]	Tail moment ([4]; mean ± SEM)	percentage of DNA intensity in the tail ([4]; mean ± SEM)	other results
CC(C)N(C(=S)[S][Sn]([CH3])([CH3])[S]C(=S)N(C(C)C)C(C)C)C(C)C [ODTC 6, dimethyltin (IV) diisopropyl dithiocarbamate]	58.47% and 122.11% and 74.00%	54.60% and 100.55% and 42.63%	68.83% and 73.56% and 74.68%	43.76% and 67.94% and 56.55%	56.86% and 66.74% and 57.64%	44.7% and 48.9% and 45.6%	33.5% and 23.8% and 26.2%	0.1% and 0.3% and 0.2%	21.6% and 27% and 28.1%	65.00% and 60.00% and 55.00%	4.80% and 5.00% and 2.80%	30.20% and 35.00% and 42.20%	4.005% and 4.8% and 5.931%	3.51 A.U and 4.102 A.U and 5.014 A.U	5 ± 1.04 µM	–	–	–	IC50 ([1]; read-out: IC50 (µM) CCL-119, 24 hours of exposure, mean ± SEM, n = 3): 3.1 ± 1.08 µM; cell death through apoptosis (population of cells) ([2]; 24 hours, treated at IC50, early + late apoptosis): 74.2%; DNA damage / genotoxic effect (in words) [4]: no DNA damage
CCN(CC)C(=S)[S][Sn]([c]1ccccc1)([c]1ccccc1)[c]1ccccc1 [ODTC 5, triphenyltin (IV) diethyl dithiocarbamate]	37.70% and 42.75% and 36.81%	39.38% and 30.79% and 37.35%	35.19% and 39.06% and 29.63%	37.67% and 28.99% and 27.66%	16.16% and 17.11% and 21.93%	10.9% and 47.3% and 16.6%	6.4% and 17.1% and 18.5%	12.9% and 0.1%	69.8% and 35.6% and 64.8%	64.02% and 86.49% and 54.56%	30.58% and 13.51% and 45.44%	5.4% and 0%	13.8528% and 11.0312% and 9.872%	15.0222 A.U and 13.1179 A.U and 9.676 A.U	0.79 ± 0.05 µM	4.16	12.61 ± 1.56 A.U	11.59 ± 1.18%	population of cells undergoing necrosis ([2]; 24 hours, treated at IC50): 4.37%
C=CCN(CC=C)C(=S)[S][Sn]([c]1ccccc1)([c]1ccccc1)[c]1ccccc1 [ODTC 4, triphenyltin (IV) diallyl dithiocarbamate]	30.40% and 42.75% and 41.34%	24.51% and 37.25% and 30.23%	26.67% and 22.56% and 24.61%	25.39% and 26.40% and 25.55%	20.16% and 12.33% and 18.27%	41.4% and 46.5% and 27%	15.2% and 19.2% and 9.9%	0.2% and 0.1%	43.2% and 34.2% and 63%	45.09% and 46.03% and 29.64%	8.07% and 7.1% and 0%	46.84% and 46.87% and 70.36%	12.9244% and 13.7623% and 16.0541%	29.2637 A.U and 27.4848 A.U and 20.7304 A.U	0.67 ± 0.14 µM	4.19	25.83 ± 2.60 A.U	14.24 ± 0.94%	Phases of Cell Cycle Arrest ([3]; 24 hours at IC50 concentrations): S phase
CC(C)N(C(=S)[S][Sn]([c]1ccccc1)([c]1ccccc1)[c]1ccccc1)C(C)C [ODTC 3, triphenyltin (IV) diisopropyl dithiocarbamate]	47.07% and 58.65% and 40.35%	40.17% and 50.04% and 42.00%	42.27% and 42.45% and 31.66%	35.57% and 24.06% and 25.57%	27.21% and 27.19% and 34.26%	35.9% and 47.6% and 15.9%	10.8% and 9% and 12%	0.1% and 0% and 1.5%	53.2% and 43.4% and 70.6%	9.54% and 24.65% and 21.14%	90.46% and 75.18% and 78.7%	0% and 0.17% and 0.16%	9.366% and 11.3439% and 11.6624%	20.8823 A.U and 21.8477 A.U and 24.0274 A.U	0.75 ± 0.07 µM	3.13	22.25 ± 0.93 A.U	10.79 ± 0.72%	–
